Results taken from patent US20060069132A1, “Azolecarboxamide herbicides” (priority 2004, published 2006).

Legend:
barnyardgrass = test: Test A pre-/postemergence herbicide test; type: in vivo, Echinochloa crus-galli
How it was run: (§1)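 Greenhouse injury scoring (0–100, complete control = 100) at approximately ten days follows simultaneous pre- and postemergence application. Soil received a directed spray after seeding; seedlings of 2–10 cm at the one- to two-leaf stage were sprayed to runoff.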

large crabgrass = test: Test A pre-/postemergence herbicide test; type: in vivo, Digitaria sanguinalis
How it was run: as §1

giant foxtail = test: Test A pre-/postemergence herbicide test; type: in vivo, Setaria faberi
How it was run: as §1

blackgrass = test: Test B postemergence herbicide test; type: in vivo, Alopecurus myosuroides; settings: postemergence, visual rating, scale 0 (no effect) to 100 (complete control)
How it was run: (§2)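 Greenhouse test; postemergence application to plants at 1–4 leaves (2–18 cm); paddy species at 2 leaves; evaluated visually vs controls at 13–15 days; scale 0–100 (100 = complete control).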

ducksalad = test: Test B flooded paddy test; type: in vivo, Heteranthera limosa; settings: 1000 g ai/ha, visual rating, scale 0 to 100 (0 no effect, 100 complete control), 13 to 15 days
How it was run: as §2

cocklebur = test: Test C pre-/postemergence herbicide test; type: in vivo, Xanthium strumarium; settings: for Plant response rating, Cocklebur: preemergence; for Cocklebur plant response rating: Preemergence, 500 g ai/ha, scale 0 to 100, 0 no effect, 100 complete control
How it was run: (§3)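 Pre/post spray; non-phytotoxic solvent + surfactant. Post-timing 1–4 leaves, 2–18 cm. Read-out: visual % control vs untreated, day 12–14, greenhouse.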

corn = test: Test C pre-/postemergence herbicide test; type: in vivo, Zea mays; settings: for Plant response rating, Corn: preemergence; for Corn plant response rating: Preemergence, scale 0 to 100, 0 no effect, 100 complete control
How it was run: as §3

woolly cupgrass = test: Test C pre-/postemergence herbicide test; type: in vivo, Eriochloa villosa; settings: for Plant response rating, Cupgrass, Woolly: preemergence; for Cupgrass, Woolly plant response rating: Preemergence, scale 0 to 100, 0 no effect, 100 complete control
How it was run: as §3

[1] = system: common (oilseed) sunflower; test: Test C pre-/postemergence herbicide test; type: in vivo, Helianthus annuus; settings: for Plant response rating, Sunflower: preemergence; for Sunflower plant response rating: Preemergence, scale 0 to 100, 0 no effect, 100 complete control
How it was run: as §3

[2] = Postemergence, 500 g ai/ha, 0 to 100 scale, 0 no effect, 100 complete control
[3] = Postemergence, 2000 g ai/ha, 0 to 100 scale, 0 no effect, 100 complete control
[4] = Preemergence, 2000 g ai/ha, visual rating, 0 to 100 scale (0 no effect, 100 complete control)
[5] = preemergence, 500 g ai/ha, visual injury, 0 to 100 scale (0 no effect, 100 complete control)
[6] = 125 g ai/ha, scale 0 (no effect) to 100 (complete control), visual, 12 to 14 days
[7] = 500 g ai/ha, scale 0 to 100 (0 no effect, 100 complete control), visual, 12 to 14 days

## CC(=NO)c1cccc(NC(=O)c2sc(C(C)(C)C)nc2C)c1 [Compound 195]
barnyardgrass; [2]
  Barnyardgrass plant response rating: 15
barnyardgrass; [3]
  Plant response rating, Barnyardgrass: 50
barnyardgrass; [4]
  Barnyardgrass plant response rating: 45
barnyardgrass; [5]
  Barnyardgrass plant response rating: 20
Large crabgrass; [2]
  Crabgrass, Large plant response rating: 10
Large crabgrass; [3]
  Plant response rating, Crabgrass, Large: 25
Large crabgrass; [4]
  Crabgrass, Large plant response rating: 95
Large crabgrass; [5]
  Crabgrass, Large plant response rating: 75
Giant foxtail; [2]
  Foxtail, Giant plant response rating: 5
Giant foxtail; [3]
  Plant response rating, Foxtail, Giant: 0
Giant foxtail; [4]
  Foxtail, Giant plant response rating: 45
Giant foxtail; [5]
  Foxtail, Giant plant response rating: 30
blackgrass; 125 g ai/ha
  Blackgrass plant response rating: 0
blackgrass; 500 g ai/ha
  Blackgrass plant response rating: 10
ducksalad
  Ducksalad plant response rating: 40
cocklebur; 62 g ai/ha, scale 0 to 100
  Plant response rating, Cocklebur: 0
cocklebur; [6]
  Plant response rating, Cocklebur: 0
cocklebur; 250 g ai/ha, scale 0-100
  Plant response rating, Cocklebur: 0
cocklebur
  Cocklebur plant response rating: 0
corn; 62 g ai/ha, scale 0 to 100
  Plant response rating, Corn: 0
corn; [6]
  Plant response rating, Corn: 0
corn; 250 g ai/ha, scale 0-100
  Plant response rating, Corn: 0
corn; 500 g ai/ha
  Corn plant response rating: 0
Woolly cupgrass; 62 g ai/ha, scale 0 to 100
  Plant response rating, Cupgrass, Woolly: 0
Woolly cupgrass; [6]
  Plant response rating, Cupgrass, Woolly: 0
Woolly cupgrass; 250 g ai/ha, scale 0-100
  Plant response rating, Cupgrass, Woolly: 10
Woolly cupgrass; 500 g ai/ha
  Cupgrass, Woolly plant response rating: 10
[1]; 62 g ai/ha, scale 0 to 100
  Plant response rating, Sunflower: 0
[1]; [6]
  Plant response rating, Sunflower: 0
[1]; 250 g ai/ha, scale 0-100
  Plant response rating, Sunflower: 0
[1]; 500 g ai/ha
  Sunflower plant response rating: 10

## CCNC(=O)c1cccc(NC(=O)c2sc(C(C)(C)C)nc2CC)n1 [Compound 213]
barnyardgrass; [2]
  Barnyardgrass plant response rating: 25
barnyardgrass; [3]
  Plant response rating, Barnyardgrass: 45
barnyardgrass; [4]
  Barnyardgrass plant response rating: 70
barnyardgrass; [5]
  Barnyardgrass plant response rating: 40
Large crabgrass; [2]
  Crabgrass, Large plant response rating: 20
Large crabgrass; [3]
  Plant response rating, Crabgrass, Large: 30
Large crabgrass; [4]
  Crabgrass, Large plant response rating: 95
Large crabgrass; [5]
  Crabgrass, Large plant response rating: 55
Giant foxtail; [2]
  Foxtail, Giant plant response rating: 20
Giant foxtail; [3]
  Plant response rating, Foxtail, Giant: 25
Giant foxtail; [4]
  Foxtail, Giant plant response rating: 85
Giant foxtail; [5]
  Foxtail, Giant plant response rating: 60
blackgrass; 125 g ai/ha
  Blackgrass plant response rating: 20
blackgrass; 500 g ai/ha
  Blackgrass plant response rating: 40
ducksalad
  Ducksalad plant response rating: 70
cocklebur; 250 g ai/ha, scale 0-100
  Plant response rating, Cocklebur: 100
cocklebur
  Cocklebur plant response rating: 100
corn; 62 g ai/ha, scale 0 to 100
  Plant response rating, Corn: 0
corn; [6]
  Plant response rating, Corn: 0
corn; 250 g ai/ha, scale 0-100
  Plant response rating, Corn: 30
corn; [7]
  Plant response rating, Corn: 40
Woolly cupgrass; 62 g ai/ha, scale 0 to 100
  Plant response rating, Cupgrass, Woolly: 0
Woolly cupgrass; [6]
  Plant response rating, Cupgrass, Woolly: 0
Woolly cupgrass; 250 g ai/ha, scale 0-100
  Plant response rating, Cupgrass, Woolly: 0
Woolly cupgrass; [7]
  Plant response rating, Cupgrass, Woolly: 30
[1]; 62 g ai/ha, scale 0 to 100
  Plant response rating, Sunflower: 0
[1]; [6]
  Plant response rating, Sunflower: 0
[1]; 250 g ai/ha, scale 0-100
  Plant response rating, Sunflower: 0
[1]; [7]
  Plant response rating, Sunflower: 0

## CCNC(=O)c1cccc(NC(=O)c2sc(C(C)(C)C)nc2C)c1 [Compound 198]
barnyardgrass; [2]
  Barnyardgrass plant response rating: 45
barnyardgrass; [3]
  Plant response rating, Barnyardgrass: 80
barnyardgrass; [4]
  Barnyardgrass plant response rating: 90
barnyardgrass; [5]
  Barnyardgrass plant response rating: 55
Large crabgrass; [2]
  Crabgrass, Large plant response rating: 20
Large crabgrass; [3]
  Plant response rating, Crabgrass, Large: 65
Large crabgrass; [4]
  Crabgrass, Large plant response rating: 90
Large crabgrass; [5]
  Crabgrass, Large plant response rating: 80
Giant foxtail; [2]
  Foxtail, Giant plant response rating: 30
Giant foxtail; [3]
  Plant response rating, Foxtail, Giant: 65
Giant foxtail; [4]
  Foxtail, Giant plant response rating: 95
Giant foxtail; [5]
  Foxtail, Giant plant response rating: 90
blackgrass; 125 g ai/ha
  Blackgrass plant response rating: 0
blackgrass; 500 g ai/ha
  Blackgrass plant response rating: 10
ducksalad
  Ducksalad plant response rating: 70
cocklebur; 62 g ai/ha, scale 0 to 100
  Plant response rating, Cocklebur: 0
cocklebur; [6]
  Plant response rating, Cocklebur: 0
cocklebur; 250 g ai/ha, scale 0-100
  Plant response rating, Cocklebur: 0
cocklebur
  Cocklebur plant response rating: 10
corn; 62 g ai/ha, scale 0 to 100
  Plant response rating, Corn: 0
corn; [6]
  Plant response rating, Corn: 0
corn; 250 g ai/ha, scale 0-100
  Plant response rating, Corn: 0
corn; 500 g ai/ha
  Corn plant response rating: 0
Woolly cupgrass; 62 g ai/ha, scale 0 to 100
  Plant response rating, Cupgrass, Woolly: 0
Woolly cupgrass; [6]
  Plant response rating, Cupgrass, Woolly: 5
Woolly cupgrass; 250 g ai/ha, scale 0-100
  Plant response rating, Cupgrass, Woolly: 10
Woolly cupgrass; 500 g ai/ha
  Cupgrass, Woolly plant response rating: 70
[1]; 62 g ai/ha, scale 0 to 100
  Plant response rating, Sunflower: 0
[1]; [6]
  Plant response rating, Sunflower: 0
[1]; 250 g ai/ha, scale 0-100
  Plant response rating, Sunflower: 10
[1]; 500 g ai/ha
  Sunflower plant response rating: 20
